Measured values: ChEMBL document CHEMBL4311990, “Synthesis, biological activity, and mechanism of action of new 2-pyrimidinyl hydrazone and N-acylhydrazone derivatives, a potent and new classes of antileishmanial agents” (Eur J Med Chem, 2019)
Active and inactive are the calls of the source. The rule behind the calls is not given here.

Key:
[1] = Selectivity index, ratio of CC50 for BALB/c mouse peritoneal macrophages to IC50 for GFP-expressing Leishmania amazonensis MHOM/BR/75/Josefa intracellular amastigotes infected in murine peritoneal macrophages; assay type: toxicity, cell-based; settings: read-out: Ratio CC50/IC50
[2] = test system: Leishmania amazonensis; test: Antileishmanial activity against GFP-expressing Leishmania amazonensis MHOM/BR/75/Josefa intracellular amastigotes infected in murine peritoneal macrophages incubated for 72 hrs by spectrofluorimetry analysis; assay type: functional, organism-based
[3] = test system: Leishmania amazonensis; test: Antileishmanial activity against wild type Leishmania amazonensis IFLA/BR/67/PH8 promastigotes assessed as parasite viability incubated for 72 hrs by MTT assay; assay type: functional, organism-based; settings: IFLA/BR/67/PH8, 72 h
[4] = Cytotoxicity against sodium thioglycolate-stimulated BALB/c mouse peritoneal macrophages measured after 72 hrs; assay type: cell-based, Peritoneal macrophage
[5] = test system: Leishmania amazonensis; test: Induction of change in plasma membrane integrity in wild type Leishmania amazonensis IFLA/BR/67/PH8 promastigotes assessed as increase in fluorescence intensity at 24.28 uM measured after 24 hrs by propidium iodide staining based spectrofluorimetry analysis relative to control; assay type: functional
[6] = test system: Leishmania amazonensis; test: Induction of ROS generation in wild type Leishmania amazonensis IFLA/BR/67/PH8 promastigotes assessed as increase in ROS level by measuring fluorescence intensity at 48.56 uM measured after 24 hrs by H2DCFDA probe based fluorimetry analysis relative to control; assay type: functional
[7] = test system: Leishmania amazonensis; test: Induction of mitochondrial membrane depolarization in wild type Leishmania amazonensis IFLA/BR/67/PH8 promastigotes assessed as reduction in ratio of […] at 24.28 uM measured after 72 hrs by JC-1 probe based spectrofluorimetry analysis relative to control; assay type: functional; parameters: scale not given: the % may be the effect or the level left
[8] = test system: Leishmania amazonensis; test: Induction of change in plasma membrane integrity in wild type Leishmania amazonensis IFLA/BR/67/PH8 promastigotes assessed as increase in fluorescence intensity at 48.56 uM measured after 24 hrs by propidium iodide staining based spectrofluorimetry analysis relative to control; assay type: functional
[9] = test system: Leishmania amazonensis; test: Induction of mitochondrial membrane depolarization in wild type Leishmania amazonensis IFLA/BR/67/PH8 promastigotes assessed as reduction in fluorescence intensity at 24.28 uM measured after 72 hrs by Mitotracker red staining based spectrofluorimetry analysis relative to control; assay type: functional; parameters: scale not given: the % may be the effect or the level left
[10] = test system: Leishmania amazonensis; test: Induction of mitochondrial membrane depolarization in wild type Leishmania amazonensis IFLA/BR/67/PH8 promastigotes assessed as reduction in fluorescence intensity at 48.56 uM measured after 72 hrs by Mitotracker red staining based spectrofluorimetry analysis relative to control; assay type: functional; parameters: scale not given: the % may be the effect or the level left
[11] = test system: Leishmania amazonensis; test: Induction of ROS generation in wild type Leishmania amazonensis IFLA/BR/67/PH8 promastigotes assessed as increase in ROS level by measuring fluorescence intensity at 24.28 uM measured after 24 hrs by H2DCFDA probe based fluorimetry analysis relative to control; assay type: functional
[12] = test system: Leishmania amazonensis; test: Induction of mitochondrial membrane depolarization in wild type Leishmania amazonensis IFLA/BR/67/PH8 promastigotes assessed as reduction in ratio of […] at 48.56 uM measured after 72 hrs by JC-1 probe based spectrofluorimetry analysis relative to control; assay type: functional; parameters: scale not given: the % may be the effect or the level left
[13] = test system: Leishmania amazonensis; test: Induction of ROS generation in wild type Leishmania amazonensis IFLA/BR/67/PH8 promastigotes assessed as increase in ROS level by measuring fluorescence intensity at 9.66 uM measured after 24 hrs by H2DCFDA probe based fluorimetry analysis relative to control; assay type: functional
[14] = test system: Leishmania amazonensis; test: Induction of ROS generation in wild type Leishmania amazonensis IFLA/BR/67/PH8 promastigotes assessed as increase in ROS level by measuring fluorescence intensity at 19.32 uM measured after 24 hrs by H2DCFDA probe based fluorimetry analysis relative to control; assay type: functional
[15] = test system: Leishmania amazonensis; test: Induction of mitochondrial membrane depolarization in wild type Leishmania amazonensis IFLA/BR/67/PH8 promastigotes assessed as reduction in ratio of […] at 19.32 uM measured after 72 hrs by JC-1 based spectrofluorimetry analysis relative to control; assay type: functional; parameters: scale not given: the % may be the effect or the level left
[16] = test system: Leishmania amazonensis; test: Effect on plasma membrane integrity in wild type Leishmania amazonensis IFLA/BR/67/PH8 promastigotes assessed as increase in fluorescence intensity at 9.66 to 19.32 uM measured after 24 hrs by propidium iodide staining based spectrofluorimetry analysis; assay type: functional, organism-based
[17] = test system: Leishmania amazonensis; test: Induction of mitochondrial membrane depolarization in wild type Leishmania amazonensis IFLA/BR/67/PH8 promastigotes assessed as reduction in fluorescence intensity at 19.32 uM measured after 72 hrs by Mitotracker red staining based spectrofluorimetry analysis relative to control; assay type: functional; parameters: scale not given: the % may be the effect or the level left

Structure (SMILES)	IC50 [2] [µM]	selectivity ratio [1]	IC50 [3] [µM]	CC50 at 72 h [4] [µM]	also measured
Oc1ccccc1/C=N/Nc1ncccn1	57.9	1.45	28.1	84.2	–
Oc1cccc(/C=N/Nc2ncccn2)c1O	14.5	> 10.3	7.95	> 150	–
O=C(N/N=C/c1cc([N+](=O)[O-])ccc1O)c1ncccn1	69.1	0.91	29	63.4	–
O=C(N/N=C/c1ccc([N+](=O)[O-])s1)c1ncccn1	8.41	> 17.8	> 100	> 150	–
O=C(N/N=C/c1ccc(O)cc1O)c1ncccn1	> 100	> 1.5	> 100	> 150	–
O=C(N/N=C/c1cc(O)ccc1O)c1ncccn1	73.9	> 2.03	39.3	> 150	–
Oc1ccc(O)c(/C=N/Nc2ncccn2)c1	45.7	1.95	27.5	89.4	–
CCCCCCCCCCCCCCCCOP(=O)([O-])OCC[N+](C)(C)C [MILTEFOSINE]	4.05	32.6	–	132	–
O=C(N/N=C/c1ccc([N+](=O)[O-])o1)c1ncccn1	10.8	2.68	24.3	29.1	Activity [5]: 82.9%; Activity [6]: 74.11%; Activity [7]: 36%; Activity [8]: 143%; Activity [9]: 54.94%; Activity [10]: 55.48%; Activity [11]: 47.66%; Activity [12]: 49.75%
C(=N\Nc1ncccn1)/c1ccccn1	4.07	6.04	9.66	24.6	Activity [13]: 111.1%; Activity [14]: 88.13%; Activity [15]: 10.97%; Activity [16]: inactive; Activity [17]: 30.27%

More lines, main results first:

IC50 [2] [µM]	Structure (SMILES)	selectivity ratio [1]	IC50 [3] [µM]	CC50 at 72 h [4] [µM]	also measured
> 100	O=C(N/N=C/c1ccccc1O)c1ncccn1	> 1.5	90	> 150	–
> 100	O=C(N/N=C/c1ccccn1)c1ncccn1	> 1.5	> 100	> 150	–
10.1	O=[N+]([O-])c1ccc(O)c(/C=N/Nc2ncccn2)c1	2.36	10.5	23.8	–
33.9	O=C(N/N=C/c1cccc(O)c1O)c1ncccn1	> 4.42	27.4	> 150	–
52.1	Cc1ccc(/C=N/Nc2ncccn2)c(O)c1	1.05	56	54.8	–
35.8	Cc1ccc(/C=N/NC(=O)c2ncccn2)c(O)c1	> 4.19	52	> 150	–
